Data published in the supplement of paper PMC10307832.

Assays:
Assay in all cases: relative viability (nuclei count vs DMSO), 5 days (fraction); higher = more cells survive
[1] = compound: COc1cc2nccc(Oc3ccc(NC(=O)C4(C(=O)Nc5ccc(F)cc5)CC4)cc3)c2cc1OC [Cabozantinib] + N=C(N)NC(=N)NCCc1ccccc1 [Phenformin] (partner 250 µM)
Procedure, shortened: (§1)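 Values are medians from duplicate plates. Each reflects relative viability, defined as the nuclei count of treated wells over that of vehicle wells. Lung cancer cell lines in 1536-well plates were pin-tool dosed one day after seeding with one drug alone or with a fixed anchor-drug dose plus five library-drug doses (not always all listed) in √10 steps, then fixed, stained and imaged at 4× after 5 days.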

[2] = compound: COc1cc2nccc(Oc3ccc(NC(=O)C4(C(=O)Nc5ccc(F)cc5)CC4)cc3)c2cc1OC [Cabozantinib] + C[C@]1(O)C[C@@H](c2nc(-c3ccc4ccc(-c5ccccc5)nc4c3)c3c(N)nccn32)C1 [Linsitinib] (partner 1 µM)
Procedure, shortened: as §1

Kobe2602 + Tozasertib = compound: C1=CC(=CC=C1NC(=S)NNC2=C(C=C(C=C2[N+](=O)[O-])C(F)(F)F)[N+](=O)[O-])F [Kobe2602] + Cc1cc(Nc2cc(N3CCN(C)CC3)nc(Sc3ccc(NC(=O)C4CC4)cc3)n2)n[nH]1 [Tozasertib] (partner 0.1 µM)
Procedure, shortened: as §1

Kobe2602 + Olaparib = compound: C1=CC(=CC=C1NC(=S)NNC2=C(C=C(C=C2[N+](=O)[O-])C(F)(F)F)[N+](=O)[O-])F [Kobe2602] + O=C(c1cc(Cc2n[nH]c(=O)c3ccccc23)ccc1F)N1CCN(C(=O)C2CC2)CC1 [Olaparib] (partner 8 µM)
Procedure, shortened: as §1

Cell Line | relative viability ([1]; first compound 0.02 µM) | relative viability ([1]; first compound 0.06325 µM) | relative viability ([1]; first compound 0.2 µM) | relative viability ([1]; first compound 0.6325 µM) | relative viability ([1]; first compound 2 µM) | relative viability ([2]; first compound 0.02 µM) | relative viability ([2]; first compound 0.06325 µM) | relative viability ([2]; first compound 0.2 µM) | relative viability ([2]; first compound 0.6325 µM) | relative viability ([2]; first compound 2 µM) | relative viability (Kobe2602 + Tozasertib; first compound 0.2 µM) | relative viability (Kobe2602 + Tozasertib; first compound 0.6325 µM) | relative viability (Kobe2602 + Tozasertib; first compound 2 µM) | relative viability (Kobe2602 + Tozasertib; first compound 6.325 µM) | relative viability (Kobe2602 + Tozasertib; first compound 20 µM) | relative viability (Kobe2602 + Olaparib; first compound 0.2 µM) | relative viability (Kobe2602 + Olaparib; first compound 0.6325 µM) | relative viability (Kobe2602 + Olaparib; first compound 2 µM) | relative viability (Kobe2602 + Olaparib; first compound 6.325 µM) | relative viability (Kobe2602 + Olaparib; first compound 20 µM)
NCI-H2228 | 0.392 | 0.359 | 0.298 | 0.471 | 0.35 | 0.939 | 1.32 | 0.611 | 0.716 | 0.542 | 0.19 | 0.239 | 0.246 | 0.234 | 0.219 | 0.738 | 0.576 | 0.689 | 0.593 | 0.629
NCI-H358 | 0.283 | 0.317 | 0.231 | 0.296 | 0.337 | 0.833 | 0.868 | 0.851 | 0.735 | 0.736 | 0.0888 | 0.122 | 0.0944 | 0.109 | 0.103 | 0.586 | 0.592 | 0.589 | 0.528 | 0.653
NCI-H2342 | 0.538 | 0.785 | 0.552 | 0.633 | 0.545 | – | – | – | – | – | 0.575 | 0.546 | 0.408 | 0.491 | 0.542 | 0.415 | 0.406 | 0.435 | 0.493 | 0.434
NCI-H1792 | – | 0.374 | 0.37 | 0.254 | 0.251 | 0.669 | 0.588 | 0.511 | 0.483 | 0.496 | – | – | – | – | – | 0.372 | 0.556 | 0.398 | 0.253 | 0.566
NCI-H1563 | 0.601 | 0.668 | 0.658 | 0.702 | 0.709 | 0.853 | 1.3 | 1.37 | 1.11 | 0.957 | – | – | – | – | – | – | – | – | – | –
NCI-H1650 | 0.434 | 0.556 | 0.395 | 0.43 | 0.376 | – | – | – | – | – | 0.409 | 0.337 | 0.319 | 0.24 | 0.271 | 0.844 | 0.891 | 0.819 | 0.868 | 0.8
NCI-H522 | 0.692 | 0.657 | 0.633 | 0.637 | 0.716 | – | – | – | – | – | 0.68 | 0.644 | 0.552 | 0.592 | 0.568 | 0.66 | 0.662 | 0.646 | 0.641 | 0.598
NCI-H2170 | 0.468 | 0.418 | 0.425 | 0.365 | 0.353 | – | – | – | – | – | 0.65 | 0.729 | 0.721 | 0.78 | 0.694 | 0.561 | 0.574 | 0.53 | 0.597 | 0.625
SW 900 | 0.692 | 0.668 | 0.662 | 0.552 | 0.408 | – | – | – | – | – | 0.561 | 0.621 | 0.458 | 0.379 | 0.512 | 0.914 | 0.981 | 0.679 | 0.969 | 0.976
EBC-1 | – | – | – | – | – | 1.04 | 0.942 | 0.432 | 0.121 | 0.116 | – | – | – | – | – | 0.687 | 0.684 | 0.69 | 0.647 | 0.759
IA-LM | – | – | – | – | – | 0.704 | 0.689 | 0.683 | 0.559 | 0.696 | – | – | – | – | – | 0.851 | 0.718 | 0.773 | 0.894 | 0.862
